The record followed here is patent EP0639380B1, “Cyclodextrin inclusion product of taxol, process for producing the same, and its use” (Ensuiko Sugar Refining Company, Limited, priority 1993, dated 1995).

The conditions of series [1]: 70 min. The method, then:
098 g of hydroxyethyl-β-CD in which, of 21 hydroxyl groups contained in one β -CD molecule, an average of 1.6 groups are substituted through an ether bond with a hydroxyethyl group (hereinafter referred to as HE-β-CD) or 0.090 g of hydroxypropyl-β-CD in which, of 21 hydroxyl groups contained in one β -CD molecule, an average of 0.9 groups are substituted through an ether bond with a hydroxypropyl group (hereinafter referred to as HP-β -CD), and the volume of each solution was adjusted to 10 ml to prepare aqueous CD solutions of a concentration of 6 mM.
To the solutions were added 2 mg each of taxol, and the resulting mixtures were stirred at room temperature (20 to 25°C) at 5,000 r.p.m. As a control, 2 mg of taxol were added to 10 ml of water, and the resulting mixture was stirred at room temperature (20 to 25°C) at 5,000 r.p.m. After 70 minutes of stirring, the solutions were passed through a filter of a pore diameter of 0. 45µm, and the concentration of taxol contained in the filtrates was determined by highperformance liquid chromatography (HPLC).
Then, 20 mg of taxol were added to the aqueous DM-β-CD solution, 2 mgof taxol to the aqueous HP-β-CD solution, and 1 mg each of taxol to the other aqueous CD solutions, and the resulting mixtures were stirred at room temperature (20 to 25°C) at 5,000 r.p.m. As a control, 1 mg of taxol was added to 10 ml of water, and the resulting mixture was stirred at room temperature (20 to 25°C) at 5,000 r.p.m. After 70 minutes of stirring, the solutions were passed through a filter with a pore diameter of 0.45µm, and the concentration of taxol contained in the filtrates was determined.

The format of series [2] is physicochemical. The method, then:
Into 70 ml of a mixture of methanol and water (volume ratio, 1:1), the same volume of a mixture of acetonitrile and water (volume ratio, 1: 1), the same volume of a mixture of acetone and water (volume ratio, 1: 1) and the same volume of mixture of tetrahydrofuran and water (volume ratio, 1:1) were added 5 mg each of taxol. To the resulting taxol solutions were added 500 mg each of DM-β-CD, and the resulting mixtures were stirred vigorously by a stirrer at a temperature of 25°C. After two hours of stirring, 100 ml each of water were added thereto, and the resulting solutions were freeze-dried, so as to obtain powders by completely removing the water and the organic solvents. Then, 8 mg each of the thus-obtained powders were dissolved into 1 ml of water while stirring, and the resulting solutions were passed through a filter with a pore size of 0. 45µm, and the concentration of DM-β-CD and of the taxol contained in the filtrates was determined by HPLC. […]
Two taxol solutions were prepared by dissolving 5 mg each of taxol into 100 ml each of mixtures of methanol and water (volume ratio, 1:1). To these solutions were added 50 mg of HE-β-CD or HP-β-CD, and the resulting mixtures were vigorously stirred using a stirrer at 25°C. […]

Where two headings read alike, the source gives them in different places.

For the compound `CC(=O)O[C@H]1C(=O)[C@@]2(C)[C@H]([C@H](OC(=O)c3ccccc3)[C@]3(O)C[C@H](OC(=O)[C@H](O)[C@@H](NC(=O)c4ccccc4)c4ccccc4)C(C)=C1C3(C)C)[C@]1(OC(C)=O)CO[C@@H]1C[C@@H]2O` [CD not added (Control), taxol], in series [1], the “Solubility of Taxol” value stood at 0 µ g/ml.

On to hydroxyethyl-β-CD [HE-β-CD], for which, in series [1], the “Solubility of Taxol” value is 0.5 µ g/ml and the “Solubilty of Taxol” value stood at 22.2 µ g/ml. Also, the “Solubility of Taxol” value in series [2] was 1.3 µ g/ml.

On to hydroxypropyl-β-CD [HP-β-CD], for which, in series [1], the “Solubility of Taxol” value is reported as 1.1 µ g/ml and the “Solubilty of Taxol” value is 68.9 µ g/ml. The “Solubility of Taxol” value in series [2] amounted to 6.1 µ g/ml.

Turning to 2, 6-di-O-methyl- β -CD [DM-β-CD], in series [1], the “Solubility of Taxol” value was determined as 47.1 µ g/ml and the “Solubilty of Taxol” value amounted to 1236 µ g/ml.

Turning to 6-mono-O-maltosyl-β-CD [G2-β-CD], in series [1], the “Solubility of Taxol” value is listed as 0.5 µ g/ml and the “Solubilty of Taxol” value came out at 23.0 µ g/ml.
